Results reported in ChEMBL document CHEMBL4130627, “Prodrugs of the Phosphoribosylated Forms of Hydroxypyrazinecarboxamide Pseudobase T-705 and Its De-Fluoro Analogue T-1105 as Potent Influenza Virus Inhibitors” (J Med Chem, 2018).
The source made the active and inactive calls. No cut-off for these calls is given here.

Key:
[1] = Cytotoxicity against MDCK cells assessed as reduction in cell viability after 3 days by formazan-based MTS assay; set-up: species or system Canis lupus familiaris; details: dog
Influenza B virus [2] = assay: microbe, parasite or virus in culture; details: Ned/537/05, MDCK, 72 h
Description: Antiviral activity against Influenza virus B/Ned/537/05 infected in MDCK cells assessed as reduction in viral replication at 3 days post infection by microscopic analysis

Influenza A virus [3] = assay: microbe, parasite or virus in culture; details: MDCK, 72 h
Description: Antiviral activity against Influenza virus A/X-31 infected in MDCK cells assessed as reduction in viral replication at 3 days post infection by formazan-based MTS assay

Influenza B virus [4] = assay: microbe, parasite or virus in culture; details: Ned/537/05, MDCK, 72 h; remark: listed apart in the source
Description: Antiviral activity against Influenza virus B/Ned/537/05 infected in MDCK cells assessed as reduction in viral replication at 3 days post infection by formazan-based MTS assay

Influenza A virus [5] = assay: microbe, parasite or virus in culture; details: MDCK, 72 h; remark: listed apart in the source
Description: Antiviral activity against Influenza virus A/X-31 infected in MDCK cells assessed as reduction in viral replication at 3 days post infection by microscopic analysis

[6] = Cytotoxicity against HGPRT deficient 6-thioguanine-resistant MDCK cells assessed as change in cell morphology after 3 days by microscopic analysis; format: cell-based, Canis lupus familiaris; details: dog
[7] = Cytotoxicity against MDCK cells assessed as change in cell morphology after 3 days by microscopic analysis; format: cell-based, Canis lupus familiaris; details: dog
[8] = Half life of the compound in 25 mM phosphate buffe at pH 1.5 to 7.3 by RP-HPLC analysis; format: physicochemical; details: phosphate buffer
MDCK [9] = format: cell-based, Canis lupus familiaris; details: dog, 2 h, 500 µM
MDCK [10] = assay: Prodrug activation in MDCK cells assessed as T-1105-RTP formation at 450 uM up to 4 hrs by RP-HPLC-UV analysis; format: cell-based, Canis lupus familiaris; details: dog
[11] = Inhibition of Influenza virus A/X-31 RNA dependent RNA polymerase using ApG primer [adenyl (3'-5') guanosine] and [8-3H]GTP after 1 hr by filter-based assay; set-up: species or system Influenza A virus (A/X-31(H3N2))
[12] = Inhibition of Influenza virus B/Ned/537/05 RNA dependent RNA polymerase using ApG primer [adenyl (3'-5') guanosine] and [8-3H]GTP after 1 hr by filter-based assay
[13] = Drug metabolism in MDCK cells assessed as 4-((((((2R,3S,4R,5R)-5-(3-carbamoyl-2-oxopyrazin-1(2H)-yl)-3,4-dihydroxytetrahydrofuran-2-yl)methoxy)(hydroxy)phosphoryloxy)(hydroxy)phosphoryloxy)methyl)phenyl decanoate formation at 450 uM up to 4 hrs by RP-HPLC-UV analysis; format: ADME, cell-based, Canis lupus familiaris; details: dog
MDCK [14] = assay: Prodrug activation in MDCK cells assessed as T-1105-RMP formation at 450 uM up to 4 hrs by RP-HPLC-UV analysis; format: cell-based, Canis lupus familiaris; details: dog
MDCK [15] = assay: Prodrug activation in MDCK cells assessed as T-1105-RDP formation at 500 uM after 2 hrs by RP-HPLC-UV analysis; format: cell-based, Canis lupus familiaris; details: dog
[16] = Drug metabolism in MDCK cells assessed as T-1105-RDP formation at 450 uM up to 4 hrs by RP-HPLC-UV analysis; format: ADME, cell-based, Canis lupus familiaris; details: dog
Influenza A virus [17] = format: functional, organism-based; details: Influenza A virus (A/X-31(H3N2)); MDCK; 250 uM
Influenza A virus [18] = format: functional, organism-based; details: Influenza A virus (A/X-31(H3N2)); MDCK; 250 uM; remark: listed apart in the source
Influenza A virus [19] = format: functional, organism-based; details: Influenza A virus (A/X-31(H3N2)); MDCK; 100 uM
[20] = Prodrug activation in phosphate buffer at pH 7.3 assessed as half life for T-1105-RMP formation up to 332 hrs by RP-HPLC-UV analysis; format: physicochemical; details: pH 7.3, 332 h
Liver carboxylesterase [21] = target: T1, Liver carboxylesterase (Sus scrofa, UniProt Q29550); assay: Drug metabolism assessed as pig liver esterase mediated 4-((((((2R,3S,4R,5R)-5-(3-carbamoyl-5-fluoro-2-oxopyrazin-1(2H)-yl)-3,4-dihydroxytetrahydrofuran-2-yl)methoxy)(hydroxy)phosphoryloxy)(hydroxy)[…])methyl)phenyl pentanoate formation at 450 uM after 2 hrs by RP-HPLC chromatogram analysis; format: ADME; details: isolated protein
T1 sequence (Q29550 whole entry): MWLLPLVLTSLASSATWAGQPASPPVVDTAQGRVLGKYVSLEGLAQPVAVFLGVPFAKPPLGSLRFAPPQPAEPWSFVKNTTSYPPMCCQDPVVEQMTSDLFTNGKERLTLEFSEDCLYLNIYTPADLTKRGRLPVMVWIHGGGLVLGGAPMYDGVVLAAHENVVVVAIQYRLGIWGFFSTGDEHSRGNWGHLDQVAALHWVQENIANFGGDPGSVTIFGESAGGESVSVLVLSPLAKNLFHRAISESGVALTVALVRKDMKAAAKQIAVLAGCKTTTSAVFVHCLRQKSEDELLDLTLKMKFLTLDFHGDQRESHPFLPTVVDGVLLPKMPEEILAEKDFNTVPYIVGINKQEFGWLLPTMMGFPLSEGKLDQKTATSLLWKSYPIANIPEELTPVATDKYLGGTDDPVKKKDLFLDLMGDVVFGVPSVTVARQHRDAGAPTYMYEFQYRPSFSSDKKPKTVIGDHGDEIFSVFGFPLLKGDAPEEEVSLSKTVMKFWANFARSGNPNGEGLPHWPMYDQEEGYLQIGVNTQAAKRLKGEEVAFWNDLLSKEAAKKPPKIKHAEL

[22] = Stability of the compound in phosphate buffer at pH 7.3 after 30 hrs by RP-HPLC chromatogram analysis; format: physicochemical; details: pH 7.3, 30 h
[23] = Prodrug activation in phosphate buffer at pH 7.3 assessed as metabolite formation after 30 hrs by RP-HPLC chromatogram analysis; format: physicochemical; details: pH 7.3, 30 h
Liver carboxylesterase [24] = target: T1, Liver carboxylesterase; assay: Prodrug activation assessed as pig liver esterase mediated metabolite formation after 30 hrs by RP-HPLC chromatogram analysis; format: ADME; details: isolated protein

SMILES: NC(=O)c1nc(Br)cn([C@@H]2O[C@H](CO)[C@@H](O)[C@H]2O)c1=O
- CC50 at 72 h [1]: > 250 µM
- EC50 (Influenza B virus [2]): > 250 µM
- EC50 (Influenza A virus [3]): > 250 µM
- EC50 (Influenza B virus [4]): > 250 µM
- EC50 (Influenza A virus [5]): > 250 µM
- MCC at 72 h [6]: > 250 µM
- MCC at 72 h [7]: > 250 µM

SMILES: Cc1cccc2c1OP(=O)(OC[C@@H]1C=C[C@H](n3cnc4c(=O)[nH]cnc43)O1)OC2 (stereo partly specified)
- half-life [8]: 10 to 45 h

SMILES: Cc1cccc2c1OP(=O)(OC[C@@H]1CC[C@H](n3cnc4c(=O)[nH]cnc43)O1)OC2 (stereo partly specified)
- half-life [8]: 10 to 45 h

SMILES: CCCCCCCCCCCCCCC(=O)Oc1ccc(COP(=O)(OCc2ccc(OC(=O)CCCC)cc2)OP(=O)(O)OC[C@H]2O[C@@H](n3ccnc(C(N)=O)c3=O)[C@H](O)[C@@H]2O)cc1.CCN(CC)CC (stereo partly specified)
- CC50 at 72 h [1]: 31 µM
- Drug metabolism (MDCK [9]): Metabolite_Detected
- EC50 (Influenza B virus [2]): 0.67 µM
- Drug metabolism (MDCK [10]): Metabolite_Notdetected
- IC50 [11]: 49 to 126 µM
- IC50 [12]: 49 to 126 µM
- EC50 (Influenza A virus [3]): 1.6 µM
- Drug metabolism [13]: Metabolite_Detected
- Drug metabolism (MDCK [14]): Metabolite_Detected
- Drug metabolism (MDCK [15]): Metabolite_Detected
- Drug metabolism [16]: Metabolite_Detected
- EC50 (Influenza B virus [4]): 0.58 µM
- EC50 (Influenza A virus [5]): 1.5 µM
- MCC at 72 h [6]: 16 µM
- MCC at 72 h [7]: 21 µM

SMILES: NC(=O)c1nc(F)cnc1O
- inhibition (Influenza A virus [17]): Active
- EC50 (Influenza B virus [2]): 9 µM
- inhibition (Influenza A virus [18]): inactive
- EC50 (Influenza A virus [3]): 26 µM
- EC50 (Influenza B virus [4]): 8.3 µM
- EC50 (Influenza A virus [5]): 24 µM
- inhibition (Influenza A virus [19]): Active

SMILES: Cc1cccc2c1OP(=O)(OC[C@H]1O[C@@H](n3ccnc(C(N)=O)c3=O)[C@H](O)[C@@H]1O)OC2 (stereo partly specified)
- CC50 at 72 h [1]: > 400 µM
- EC50 (Influenza B virus [2]): 176 µM
- EC50 (Influenza A virus [3]): > 400 µM
- t1/2 [20]: 1.2 h
- EC50 (Influenza B virus [4]): 135 µM
- EC50 (Influenza A virus [5]): 280 µM
- MCC at 72 h [6]: > 400 µM
- MCC at 72 h [7]: > 400 µM

SMILES: COc1ccc2c(c1)COP(=O)(OC[C@@H]1C=C[C@H](n3cnc4c(N)ncnc43)O1)O2 (stereo partly specified)
- half-life [8]: 10 to 45 h

SMILES: CCCCCCCCCCCCCCC(=O)Oc1ccc(COP(=O)(OCc2ccc(OC(=O)CCCC)cc2)OP(=O)(O)OC[C@H]2O[C@@H](n3cc(F)nc(C(N)=O)c3=O)[C@H](O)[C@@H]2O)cc1.CCN(CC)CC (stereo partly specified)
- CC50 at 72 h [1]: 35 µM
- EC50 (Influenza B virus [2]): 7.2 µM
- Drug metabolism (Liver carboxylesterase [21]): Metabolite_Detected
- EC50 (Influenza A virus [3]): 10 µM
- EC50 (Influenza B virus [4]): 3.5 µM
- EC50 (Influenza A virus [5]): 5.4 µM
- Stability [22]: Unstable
- Drug metabolism [23]: Metabolite_Notdetected
- MCC at 72 h [6]: 16 µM
- MCC at 72 h [7]: 21 µM
- Drug metabolism (Liver carboxylesterase [24]): Metabolite_Notdetected

SMILES: CCCCCCCCCCCCCCC(=O)Oc1ccc(COP(=O)(OCc2ccc(OC(=O)CCCC)cc2)OP(=O)(O)OP(=O)(O)OC[C@H]2O[C@@H](n3ccnc(C(N)=O)c3=O)[C@H](O)[C@@H]2O)cc1.CCN(CC)CC.CCN(CC)CC (stereo partly specified)
- CC50 at 72 h [1]: 38 µM
- Drug metabolism (MDCK [9]): Metabolite_Detected
- EC50 (Influenza B virus [2]): 9.9 µM
- Drug metabolism (MDCK [10]): Metabolite_Notdetected
- EC50 (Influenza A virus [3]): 6.7 µM
- Drug metabolism [13]: Metabolite_Detected
- Drug metabolism (MDCK [14]): Metabolite_Detected
- Drug metabolism (MDCK [15]): Metabolite_Detected
- Drug metabolism [16]: Metabolite_Detected
- EC50 (Influenza B virus [4]): 6 µM
- EC50 (Influenza A virus [5]): 6 µM
- MCC at 72 h [6]: 16 µM
- MCC at 72 h [7]: 16 µM

SMILES: NC(=O)c1nc(F)cn([C@@H]2O[C@H](COP(=O)(O)OP(=O)(O)OP(=O)(O)O)[C@@H](O)[C@H]2O)c1=O
- IC50 [11]: 2.7 µM
- IC50 [12]: 2.7 µM
